Values after ≈ are worked out from the molar mass of the structure shown.
What was measured:
Acinetobacter baumannii [1] = test: Antimicrobial activity against Acinetobacter baumannii KI by Etest method; type: functional
Acinetobacter baumannii [2] = test: Ratio of Kcat to Km for Acinetobacter baumannii ADC-33 beta-lactamase to Kcat to Km for Acinetobacter baumannii ADC-11 beta-lactamase
Escherichia coli [3] = test: Antimicrobial activity against Escherichia coli TOP10 harboring pADC-33 plasmid with entire blaAmpC gene by Etest method; type: functional
Escherichia coli [4] = test: Antimicrobial activity against Escherichia coli TOP10 harboring pADC-11 plasmid with entire blaAmpC gene by Etest method; type: functional
Escherichia coli [5] = test: Antimicrobial activity against Escherichia coli TOP10 harboring pADC-11 plasmid carrying entire blaAmpC gene with alanine residue insertion at 215 position by Etest method; type: functional
Escherichia coli [6] = test: Antimicrobial activity against Escherichia coli TOP10 harboring pADC-11 plasmid by Etest method; type: functional
Acinetobacter baumannii [7] = test: Antimicrobial activity against Acinetobacter baumannii CIP70.10 by Etest method; type: functional
Escherichia coli [8] = test: Antimicrobial activity against Escherichia coli TOP10 harboring pADC-33 plasmid carrying entire blaAmpC gene with alanine residue deletion at 215 position and R210P substitution by Etest method; type: functional
Escherichia coli [9] = test: Antimicrobial activity against Escherichia coli TOP10 harboring pADC-33 plasmid by Etest method; type: functional
Escherichia coli [10] = test: Antimicrobial activity against Escherichia coli TOP10 harboring pADC-33 plasmid with entire blaAmpC gene with alanine residue deletion at 215 position by Etest method; type: functional
Escherichia coli [11] = test: Antimicrobial activity against Escherichia coli TOP10 harboring pTOPO plasmid by Etest method; type: functional
Acinetobacter baumannii [12] = test: Antimicrobial activity against Acinetobacter baumannii AYE expressing VEB-1 gene by Etest method; type: functional
Acinetobacter baumannii [13] = test: Antimicrobial activity against Acinetobacter baumannii beta-lactamase by Etest method; type: functional
Escherichia coli [14] = test: Antimicrobial activity against Escherichia coli TOP10 harboring pADC-50 plasmid by Etest method; type: functional
Acinetobacter baumannii [15] = test: Antimicrobial activity against Acinetobacter baumannii expressing ESAC beta-lactamase by Etest method; type: functional
Escherichia coli [16] = test: Antimicrobial activity against Escherichia coli TOP10 harboring pADC-11 plasmid carrying entire blaAmpC gene with alanine residue insertion at 215 position and R210P substitution by Etest method; type: functional

Row | SMILES | MIC (Acinetobacter baumannii [1]) [µg/mL] | kcat/Km (Acinetobacter baumannii [2]) [M⁻¹ s⁻¹] | MIC (Escherichia coli [3]) [µg/mL] | MIC (Escherichia coli [4]) [µg/mL] | MIC (Escherichia coli [5]) [µg/mL] | MIC (Escherichia coli [6]) [µg/mL] | MIC (Acinetobacter baumannii [7]) [µg/mL] | MIC (Escherichia coli [8]) [µg/mL] | MIC (Escherichia coli [9]) [µg/mL] | MIC (Escherichia coli [10]) [µg/mL] | MIC (Escherichia coli [11]) [µg/mL] | MIC (Acinetobacter baumannii [12]) [µg/mL] | MIC (Acinetobacter baumannii [13]) [µg/mL] | MIC (Escherichia coli [14]) [µg/mL] | MIC (Acinetobacter baumannii [15]) [µg/mL] | MIC (Escherichia coli [16]) [µg/mL]
1 | C[C@@H](O)[C@H]1C(=O)N2C(C(=O)O)=C(SCCNC=N)C[C@H]12 [IMIPENEM ANHYDROUS] | 2 (≈ 6.68 µM) | 800000 | 0.5 (≈ 1.67 µM) | 0.38 (≈ 1.27 µM) | 0.38 (≈ 1.27 µM) | 0.19 (≈ 0.635 µM) | 0.25 (≈ 0.835 µM) | 0.25 (≈ 0.835 µM) | 0.25 (≈ 0.835 µM) | 0.5 (≈ 1.67 µM) | 0.125 (≈ 0.418 µM) | 1 (≈ 3.34 µM) |  |  |  | 
2 | CC1(C)S[C@@H]2[C@H](NC(=O)[C@H](N)c3ccccc3)C(=O)N2[C@H]1C(=O)O |  | 500000 |  |  |  |  |  |  |  |  |  |  |  |  |  | 
3 | CO/N=C(\C(=O)N[C@@H]1C(=O)N2C(C(=O)[O-])=C(C[N+]3(C)CCCC3)CS[C@H]12)c1csc(N)n1 | 256 (≈ 533 µM) | 2e+07 | 1 (≈ 2.08 µM) | 0.125 (≈ 0.26 µM) | 0.5 (≈ 1.04 µM) | 0.032 (≈ 0.0666 µM) | 1 (≈ 2.08 µM) | 0.125 (≈ 0.26 µM) | 0.125 (≈ 0.26 µM) | 0.25 (≈ 0.52 µM) |  | > 256 | 2 (≈ 4.16 µM) | 0.032 (≈ 0.0666 µM) | 32 (≈ 66.6 µM) | 
4 | CO/N=C(\C(=O)N[C@@H]1C(=O)N2C(C(=O)O)=C(COC(N)=O)CS[C@H]12)c1ccco1 [CEFUROXIME] | > 256 |  | > 256 | > 256 | > 256 | 128 (≈ 302 µM) | 32 (≈ 75.4 µM) | > 256 | > 256 | > 256 | 2 (≈ 4.71 µM) | > 256 |  | 64 (≈ 151 µM) |  | > 256
